Patent publication US20070015733A1, “Aryl Phosphate Derivatives of d4T having Activity Against Resistant HIV Strains” (Parker Hughes Institute, priority 1998, published 2007)
Like-named read-outs stand apart in the source and are kept apart here.

How the values were obtained:
[1] = system: Zidovudine-Sensitive Primary Clinical HIV-1 Isolates; assay: p24 drug susceptibility assay, zidovudine-sensitive primary clinical HIV-1 isolates in PBMC; assay type: cell-based; conditions: Human immunodeficiency virus 1, PBMC
Method: (§1) Antiviral susceptibility assays. Phenotypic drug susceptibility studies of HIV-1 isolates and strains were performed by measuring the production of the p24 gag protein in peripheral blood mononuclear cells (PBMC) from seronegative healthy volunteers in the presence of increasing concentrations of the anti-HIV agent using the quantitative Coulter HIV-1 p24 antigen ezyme immunoassay (EIA) and HIV-1 p24 Antigen Kinetic Standard (Beckman Coulter), as previously described (Uckun, 1998, Antimicrobial Agents and Chemotherapy 37(4): 835-38). Informed consent was obtained from the blood donors according to DHHS guidelines using consent forms approved by the Institutional Review Board. In brief, PBMC were cultured for 72 h in RPMI 1640 medium (Gibco) supplemented with 20% (vol/vol) heat-inactivated fetal bovine serum, 5% human interleukin-2 (Zeptometrix), 2 mM L-glutamine, 25 mM HEPES, 2 g/L NaHCO3, 100 U/ml penicillin/streptomycin (Gibco), 50 μg/ml gentamicin (Gibco), and 5 μg/ml phytohemagglutinin-P (PHA-P) (Sigma) for 24-72 hours prior to exposure to HIV at a multiplicity of infection of 0.001-0.1 during a 1-h adsorbtion period at 37±1° C. in a humidified 5-7% CO2 atmosphere. Subsequently, cells were cultured in 96-well microtiter plates (100 μl/well; 2×10^6 cells/ml, triplicate wells) in the presence of the anti-HIV agents at 6-7 different concentrations ranging from 0.0001 μM to 100 μM, and 25 μL aliquots of culture supernatants were removed from the wells on day 6 after infection for p24 EIA, as previously described (Uckun, 1998, Antimicrobial Agents and Chemotherapy, 37(4):835-38). Controls included uninfected and untreated cells (background control) and infected but untreated (virus control) cells. The p24 EIA utilizes a murine monoclonal antibody to HIV core protein used to coat microwell strips to which the antigen present in the test culture supernatant samples binds. Percent inhibition of viral replication was calculated by comparing the p24 values from the test substance-treated infected cells with p24 values from untreated infected cells (i.e., virus controls). The IC50 values were determined using the Statview statistics program (SAS Institute, Inc.). In parallel, the effects of various treatments on cell viability were also examined as previously described (Uckun, 1998, Antimicrobial Agents and Chemotherapy, 42:383-388). In brief, noninfected PBMC were treated with each compound for 5 days under identical experimental conditions. A microculture tetrazolium assay (MTA) was performed to quantitate cellular proliferation (Uckun, 1998, Antimicrobial Agents and Chemotherapy, 42:383-388).
(§2) Phenotypic drug susceptibility studies of HIV-1 isolates and strains were performed by measuring the production of the p24 gag protein in peripheral blood mononuclear cells (PBMC) from seronegative healthy volunteers in the presence of increasing concentrations of the anti-HIV agent using the quantitative Coulter HIV-1 p24 antigen enzyme immunoassay (EIA) and HIV-1 p24 Antigen Kinetic Standard (Beckman Coulter), as previously described. StatView was used in the calculation of the IC50 values from each set of triplicate wells using the linearized form of an exponential equation (lnY=lnb0+b1X; where Y=% inhibition, X=drug concentration). The inhibition constants were log10 transformed to homogenize the variances within each group. […] P-values below 0.05 were deemed significant (JMP Software, SAS).

[2] = Pharmacokinetics after intravenous or oral administration; assay type: in vivo, mice; conditions: intravenous administration
[3] = system: HIV-2 (Strain: CBL-20); assay: Inhibition of HIV-2 replication in PBMNC (RT activity); assay type: cell-based
Method: (P-AZT) and with AZT. The incubation and analysis methods used were as described above for Example 3.
Cellular Assays of Anti-HIV Activity and Cytotoxicity. […] Percent viral inhibition was calculated by comparing the RT activity values from the test substance-treated infected cells with RT values from untreated infected cells (i.e., virus controls).

[4] = system: zidovudine-resistant primary clinical HIV-1 isolates; assay: p24 drug susceptibility assay, NRTI-/zidovudine-resistant primary clinical HIV-1 isolates in PBMC; assay type: cell-based
Method: Viruses. […] The HIV-1 strains HTLVIIIB (wildtype RT, NRTI-sensitive, NNRTI-sensitive), A17 (Y181 C mutant, NNRTI-resistant), A17-variant (Y181C+K103N mutant, NNRTI-resistant), and RT-MDR (M41 L, V106N, T215Y; NRTI-resistant, NNRTI-resistant) were also obtained from the AIDS Research and Reference Reagent Program, NIAID.
as §1, §2

[5] = system: NRTI-resistant recombinant HIV-1 isolates; assay: p24 assay, multi-NRTI-resistant recombinant HIV-1 clones; assay type: cell-based
[6] = read-out: IC50, μM (p24), Mean ± SE, mean over 10 zidovudine-sensitive clinical isolates
[7] = read-out: IC50, μM (p24), isolate 92BR025 (C/C, Brazil), PBMC
[8] = read-out: IC50, μM (p24), isolate 92RW008 (—/A, Rawanda), PBMC
[9] = read-out: IC50, μM (p24), isolate 93BR019 (—/BF, Brazil), PBMC
[10] = read-out: IC50, μM (p24), isolate 93BR020 (F/F, Brazil), PBMC
[11] = read-out: IC50, μM (p24), isolate 93BR029 (F/B, Brazil), PBMC
[12] = read-out: IC50, μM (p24), isolate 93IN101 (—/C, India), PBMC
[13] = read-out: IC50, μM (p24), isolate HIV-1G3 (—/G, Nigeria), PBMC
[14] = read-out: IC50 range, range over 10 zidovudine-sensitive clinical isolates

Cc1ccnc2c1NC(=O)c1cccnc1N2C1CC1 [nevirapine]
IC50 ([1]; primary isolate RW/92/8 (V179I), Table 14): 0.1 µM

Cc1cn([C@H]2C=C[C@@H](CO)O2)c(=O)[nH]c1=O [d4T, 2′,3′-didehydro-2′,3′-dideoxythymidine]
IC50 [1, 6]: 0.24 ± 0.07 µM
IC50 ([1]; read-out: IC50, μM (p24), isolate 92BR003 (B/B, Brazil), PBMC): 0.1 µM
IC50 [1, 7]: 0.4 µM
IC50 [1, 8]: 0.2 µM
IC50 ([1]; read-out: IC50, μM (p24), isolate 92RW016 (subtype A/A, Rawanda), PBMC): 0.1 µM
IC50 [1, 9]: 0.2 µM
IC50 [1, 10]: 0.2 µM
IC50 [1, 11]: 0.8 µM
IC50 [1, 12]: 0.1 µM
IC50 [1, 13]: 0.1 µM
IC50 ([1]; read-out: IC50, μM (p24), isolate HIV-1JV1083 (—/G, Nigeria), PBMC): 0.2 µM
IC50 [1, 14]: 0.1 to 0.8 µM
IC90 ([1]; read-out: IC90 mean ±SE): 6380 ± 3890 nM
IC90 ([1]; read-out: IC90 range): 1000 to 40900 nM
elimination half-life (t1/2) of the administered substance [2]: 30.3 min

Cc1cn([C@H]2C[C@H](N=[N+]=[N-])[C@@H](CO)O2)c(=O)[nH]c1=O [AZT, 3′-azido-3′-deoxythymidine]
IC50 [1, 6]: 0.004 ± 0.001 µM
IC50 [1, 7]: 0.004 µM
IC50 [1, 8]: 0.002 µM
IC50 [1, 9]: 0.002 µM
IC50 [1, 10]: 0.002 µM
IC50 [1, 11]: 0.007 µM
IC50 [1, 12]: 0.001 µM
IC50 [1, 13]: 0.01 µM
IC50 [1, 14]: 0.001 to 0.01 µM
IC90 ([1]; read-out: IC90 mean ±SE): 50 ± 10 nM
IC90 ([1]; read-out: IC90 range): 11 to 90 nM
IC50 ([3]; Human immunodeficiency virus 2, Table 3, unit inferred, read-out: HIV-2 IC50 [RT]): 2400 nM
antiviral activity against HIV-2 (in words) ([3]; PBMNC): not effective
IC50 ([4]; Human immunodeficiency virus 1, PBMC, isolate 92BR019 (D67N, L214F, T215D, K219Q), PBMC): 0.2 µM
IC50 ([4]; Human immunodeficiency virus 1, PBMC, isolate C140 (M41L, M184V, T215Y), PBMC): 0.1 µM
IC50 ([4]; Human immunodeficiency virus 1, PBMC, isolate C140, PBMC, p24): 0.1 µM
IC50 ([4]; Human immunodeficiency virus 1, PBMC, isolate C467-4 (K20R, D67N, K70R, Y188L, T215F, K219Q), PBMC): 3.2 µM
IC50 ([4]; Human immunodeficiency virus 1, PBMC, isolate G190-6, PBMC, p24): > 3.2 µM
IC50 ([4]; Human immunodeficiency virus 1, PBMC, isolate G691-2 (mutations N.D.), PBMC): 2.6 µM
IC50 ([4]; Human immunodeficiency virus 1, PBMC, isolate G704-2, PBMC, p24): 1.8 µM
IC50 ([4]; Human immunodeficiency virus 1, PBMC, isolate G780-1 (M41L, D67N, K70R, T215F, K219Q), PBMC): > 3.2 µM
IC50 ([4]; Human immunodeficiency virus 1, PBMC, isolate G780-1, PBMC, p24): > 3.2 µM
IC50 ([4]; Human immunodeficiency virus 1, PBMC, isolate G890-1 (K20R, M41L, D67N, T69N, K70R, L210W, T215Y), PBMC): > 3.2 µM
IC50 ([4]; Human immunodeficiency virus 1, PBMC, isolate G890-1, PBMC, p24): > 3.2 µM
IC50 ([4]; Human immunodeficiency virus 1, PBMC, isolate P798-1 (M41L, T215Y), PBMC): 1.8 µM
IC50 ([4]; Human immunodeficiency virus 1, PBMC, isolate Q252-2 (M41L, L210W, T215Y), PBMC): 1.7 µM
IC50 ([4]; Human immunodeficiency virus 1, PBMC, isolate R416-10 (M41L, T215Y), PBMC): 0.3 µM
IC50 ([4]; Human immunodeficiency virus 1, PBMC, isolate S159-2 (M41L, K103N, T215Y), PBMC): 0.7 µM
IC50 ([4]; Human immunodeficiency virus 1, PBMC, isolate S762-4 (M41L, T215Y), PBMC): 1.2 µM
IC50 ([4]; Human immunodeficiency virus 1, PBMC, isolate T156-3 (M41L, E44D, D67N, T69D, L210W, T215Y), PBMC): > 3.2 µM
IC50 ([4]; Human immunodeficiency virus 1, PBMC, isolate T156-3, PBMC, p24): > 3.2 µM
IC50 ([4]; Human immunodeficiency virus 1, PBMC, isolate X165-8 (D67N, T69N, K70R, K103N, Y181C, T215F, K219E), PBMC): 0.9 µM
IC50 ([4]; Human immunodeficiency virus 1, PBMC, isolate X165-9 (K20R, D67N, K103N, T215Y), PBMC): 0.9 µM
IC50 ([4]; Human immunodeficiency virus 1, PBMC, isolate X267-1 (L74V), PBMC, p24): 0.6 µM
IC50 ([4]; Human immunodeficiency virus 1, PBMC, isolate X267-1 (M41L, L74V, L210W, T215Y), PBMC): 0.6 µM
IC50 ([4]; Human immunodeficiency virus 1, PBMC, isolate X267-2 (M41L, T215Y), PBMC): 0.4 µM
IC50 ([4]; Human immunodeficiency virus 1, PBMC, isolate X267-5 (M41L, F116S, T215Y), PBMC): 0.6 µM
IC50 ([4]; Human immunodeficiency virus 1, PBMC, isolate Y270-7 (M41W, Y188L, T215N), PBMC): 1.5 µM
IC50 ([4]; Human immunodeficiency virus 1, PBMC, read-out: IC50, μM, Mean ± SE, mean over 20 zidovudine-resistant primary clinical isolates): 1.6 ± 0.5 µM
IC50 ([4]; Human immunodeficiency virus 1, PBMC, read-out: mean IC50 value, NRTI-resistant isolates with 5 thymidine analog mutations (Group 1 in Table 19)): 2.6 µM
IC50 ([4]; Human immunodeficiency virus 1, PBMC, read-out: mean IC50 value, isolates with M184V plus multiple thymidine analog mutations (Group 2 in Table 19)): 0.134 ± 0.0188 µM
IC50 ([4]; isolate G704-2 (M41L, D67N, K70R, L210W, T215Y), PBMC, listed as zidovudine): > 10 µM
IC50 ([4]; isolate G910-6 (M41L, D67N, K70R, T215Y, K219Q), PBMC, listed as ZDV(AZT)): > 3.2 µM
IC50 ([4]; isolate G910-6 (M41L, D67N, K70R, T215Y, K219Q), PBMC, listed as zidovudine): > 10 µM
IC50 ([5]; Human immunodeficiency virus 1, read-out: IC50 (nM), p24, recombinant clone 1617-1 (151 complex)): 320 nM
IC50 ([5]; Human immunodeficiency virus 1, read-out: IC50 (nM), p24, recombinant clone 4755-5): 165 nM
IC50 ([5]; Human immunodeficiency virus 1, read-out: IC50 (nM), p24, recombinant clone 7295-1): 137 nM
IC50 ([5]; Human immunodeficiency virus 1, read-out: IC50 (nM), p24, recombinant clone 7324-1): > 1000 nM
IC50 ([5]; Human immunodeficiency virus 1, read-out: IC50 (nM), p24, recombinant clone 52252-1 in Table 18, 56252-1 in Tables 19 and 20 (K65R, 151 complex)): > 1000 nM
IC50 ([5]; Human immunodeficiency virus 1, read-out: IC50 (nM), p24, recombinant clone printed 52534-1 in Table 18, 52534-2 in Tables 19 and 20 (69 insertion complex)): > 1000 nM
IC50 ([5]; Human immunodeficiency virus 1, read-out: mean IC50 value, recombinant clones with 151 complex or 69 insertion complex (Group 3+Group 4)): 773 ± 227 nM
